Data: US9284325B2, “Spectinamides as anti-tuberculosis agents” (UNIVERSITY OF TENNESSEE RESEARCH FOUNDATION, priority 2009, dated 2016)
Converted amounts (≈) assume the structure as drawn. Structures can show the parent of a compound that is named as a salt.

Assays:
[1] = system: Burkholderia cepacia ATCC 25416; experiment: MIC determination by microbroth dilution; assay type: cell-based; details: ATCC25416, read-out: MIC B. cepcia
[2] = system: E. faecalis ATCC 33186; experiment: MIC determination by microbroth dilution; assay type: cell-based, Enterococcus faecalis; details: Enterococcus faecalis, ATCC33186
[3] = system: P. aeruginosa PAO1; experiment: MIC determination by microbroth dilution; assay type: cell-based, Pseudomonas aeruginosa; details: Pseudomonas aeruginosa
[4] = system: S. aureus 8325 or strain ATCC 29213; experiment: MIC determination by microbroth dilution; assay type: cell-based, Staphylococcus aureus; details: Staphylococcus aureus, ATCC29213; S. aureus 8325 or strain ATCC 29213 (for 1471-1544)
[5] = system: M. tuberculosis H37Rv; experiment: MIC determination by microbroth dilution, anti-tuberculosis activity; assay type: cell-based, Mycobacterium tuberculosis; details: Mycobacterium tuberculosis, H37RV, 168 h; read-out: MIC
[6] = system: E. coli K12; experiment: MIC determination by microbroth dilution; assay type: cell-based, Escherichia coli; details: Escherichia coli, K12
[7] = system: Acinetobacter baumannii ATCC 19606; experiment: MIC determination by microbroth dilution; assay type: cell-based; details: ATCC19606
[8] = system: Strenotrophomonas maltophilia ATCC 13637; experiment: MIC determination by microbroth dilution; assay type: cell-based
[9] = system: Klebsiella pneumoniae ATCC 33495; experiment: MIC determination by microbroth dilution; assay type: cell-based; details: ATCC33495
[10] = system: E. coli K12 ΔtolC; experiment: microbe, parasite or virus in culture; assay type: cell-based; details: Escherichia coli, read-out: MIC E. coli K12 ΔtolC
[11] = system: Proteus mirabilis ATCC 25933; experiment: MIC determination by microbroth dilution; assay type: cell-based; details: ATCC25933
[12] = system: Strep. pyogenes ATCC 700294; experiment: MIC determination by microbroth dilution; assay type: cell-based, Streptococcus pyogenes; details: Streptococcus pyogenes, ATCC700294, read-out: MIC S. pyogenes
[13] = system: B. anthracis Sterne 34F2; experiment: microbe, parasite or virus in culture; assay type: cell-based, Bacillus anthracis; details: Bacillus anthracis, STERNE34F2, read-out: MIC B. anthracis 34F2
[14] = system: Strep. pneumoniae DAW27 or strain R6; experiment: MIC determination by microbroth dilution; assay type: cell-based, Streptococcus pneumoniae; details: Streptococcus pneumoniae; Strep. pneumoniae DAW27 or strain R6 (for 1443-1544); read-out: MIC S. pneumoniae
[15] = system: Proteus vulgaris ATCC 33420; experiment: MIC determination by microbroth dilution; assay type: cell-based; details: ATCC33420

Row | Structure (SMILES) | MIC [1] [µg/mL] | MIC [2] [µg/mL] | MIC [3] [µg/mL] | MIC [4] [µg/mL] | MIC [5] [µg/mL] | MIC [6] [µg/mL] | MIC [7] [µg/mL] | MIC [8] [µg/mL] | MIC [9] [µg/mL] | MIC [10] [µg/mL] | MIC [11] [µg/mL] | MIC [12] [µg/mL] | MIC [13] [µg/mL] | MIC [14] [µg/mL] | MIC [15] [µg/mL]
1 | CN[C@@H]1[C@H](O)[C@H](NC)C2O[C@]3(O)C(OC2[C@H]1O)O[C@H](C)C[C@H]3NC(=O)Cc1ccc(-c2ccc(F)cc2)cn1 (stereo partly drawn) [Compound 1542, 3′-Dihydro-3′-deoxy-4(R)-(5-(4-fluorophenyl)pyridin-2-yl)acetylamino spectinomycin tribromide] | > 200 | 25 | > 200 | 100 | 3.12 | > 200 | > 200 | > 200 | > 200 | 12.5 | > 200 | 6.25 | > 200 | 3.1 | > 200
2 | CN[C@@H]1[C@H](O)[C@H](NC)C2O[C@]3(O)C(OC2[C@H]1O)O[C@H](C)C[C@H]3NC(=O)Cc1cccc(C)c1 (stereo partly drawn) [Compound 1412, 3′-Dihydro-3′-deoxy-4(R)-m-tolylacetylamino spectinomycin Dihydrochloride] | > 200 | 200 | 100 | 50 | 25 | > 200 | > 200 | > 200 | > 200 | 200 | > 200 | 25 | 100 | 25 | > 200
3 | CN[C@@H]1[C@H](O)[C@H](NC)C2O[C@]3(O)C(OC2[C@H]1O)O[C@H](C)C[C@H]3NC(=O)Cc1cc(Cl)ccn1 (stereo partly drawn) [Compound 1544, 3′-Dihydro-3′-deoxy-4(R)-(4-chloropyridin-2-yl)acetylamino spec-tinomycin tribromide] | > 200 | 100 | > 200 | 50 | 0.8 | > 200 | > 200 | > 200 | > 200 | 12.5 | > 200 | 12.5 | > 200 | 6.25 | > 200
4 | CN[C@@H]1[C@H](O)[C@H](NC)C2O[C@]3(O)C(OC2[C@H]1O)O[C@H](C)C[C@H]3NC(=O)Cc1ccc(-c2cccc(OC)c2)cn1 (stereo partly drawn) [Compound 1543, 3′-Dihydro-3′-deoxy-4(R)-(5-(3-methoxyphenyl)pyridin-2-yl)acetyl-amino spectinomycin tribromide] | > 200 | 12.5 | > 200 | 100 | 6.25 | > 200 | > 200 | 200 | > 200 | < 6.25 | > 200 | 6.25 | > 200 | 3.1 | > 200
5 | CN[C@@H]1[C@H](O)[C@H](NC)C2O[C@]3(O)C(OC2[C@H]1O)O[C@H](C)C[C@H]3NC(=O)Cc1cn(Cc2ccccc2)nn1 (stereo partly drawn) [Compound 1537, 3′-Dihydro-3′-deoxy-4(R)-2-(1-benzyl-1H-1,2,3-triazol-4-yl)acetyl-amino spectinomycin tetrabromide] | > 200 | 25 (≈ 46.9 µM) | > 200 | 100 (≈ 188 µM) | 50 (≈ 93.9 µM) | > 200 | > 200 | > 200 | > 200 | 12.5 (≈ 23.5 µM) | > 200 | 3.1 (≈ 5.82 µM) | > 200 | 3.1 (≈ 5.82 µM) | > 200
6 | CN[C@@H]1[C@H](O)[C@H](NC)C2O[C@]3(O)C(OC2[C@H]1O)O[C@H](C)C[C@H]3NC(=O)Cc1csc(Nc2ccc(C(F)(F)F)cc2)n1 (stereo partly drawn) [Compound 1541, 3′-Dihydro-3′-deoxy-4(R)-(2-((4-(trifluoromethyl)phenyl)amino)-thiazol-4-yl)acetylamino spectinomycin tribromide] | > 200 | 25 | 25 | 100 | 6.25 | > 200 | > 200 | 200 | > 200 | 12.5 | > 200 | 6.25 | > 200 | 3.1 | > 200
